Measurements reported in ChEMBL document CHEMBL1158592, “Synthesis and biological evaluation of isoflavone fatty acid esters with potential weight loss and hypolipidemic activities” (Bioorg Med Chem, 2010).
The source made the active and inactive calls. The rule behind the calls is not given here.

Tests used:
Rattus norvegicus [1] = experiment: Antiobese activity in high fat diet-fed Sprague-Dawley rat assessed as plasma total cholesterol level at 50 mg/kg, ig administered QD for 30 days (reference value: 1.86+/-0.31 mmol/L); assay type: functional; conditions: route intragastric
Rattus norvegicus [2] = experiment: Antiobese activity in high fat diet-fed Sprague-Dawley rat assessed as body weight at 50 mg/kg, ig administered QD for 30 days (reference value: 355+/-36 g); assay type: functional; conditions: route intragastric
Rattus norvegicus [3] = experiment: Antiobese activity in high fat diet-fed Sprague-Dawley rat assessed as body fat mass measured per 100 g of body weight at 50 mg/kg, ig administered QD for 30 days (reference value: 6.4+/-1.4 g/100 g); assay type: functional; conditions: route intragastric
Rattus norvegicus [4] = experiment: Antiobese activity in high fat diet-fed Sprague-Dawley rat assessed as plasma triglyceride level at 50 mg/kg, ig administered QD for 30 days (reference value: 1.25+/-0.23 mmol/L); assay type: functional; conditions: route intragastric
Rattus norvegicus [5] = experiment: Antiobese activity in high fat diet-fed Sprague-Dawley rat assessed as plasma free fatty acid level at 50 mg/kg, ig administered QD for 30 days (reference value: 785.6+/-175.8 umol/L); assay type: functional; conditions: route intragastric
3T3-L1 [6] = experiment: Decrease in triglyceride content in mouse 3T3L1 cells assessed as reduction of lipid droplets after 48 hrs by oil-red-O staining; assay type: functional, cell-based
3T3-L1 [7] = experiment: Inhibition of mouse 3T3L1 cells differentiation after 48 hrs by oil-red-O staining; assay type: functional, cell-based
3T3-L1 [8] = experiment: Increase in PPARgamma mRNA levels in mouse 3T3L1 cells at 100 umol/L by RT-PCR; assay type: functional, cell-based
Rattus norvegicus [9] = experiment: Antiobese activity in high fat diet-fed Sprague-Dawley rat assessed as plasma free fatty acid level at 10 mg/kg, ig administered QD for 30 days (reference value: 785.6+/-175.8 umol/L); assay type: functional; conditions: route intragastric
Rattus norvegicus [10] = experiment: Antiobese activity in high fat diet-fed Sprague-Dawley rat assessed as body weight at 10 mg/kg, ig administered QD for 30 days (reference value: 355+/-36 g); assay type: functional; conditions: route intragastric
Rattus norvegicus [11] = experiment: Antiobese activity in high fat diet-fed Sprague-Dawley rat assessed as body fat mass measured per 100 g of body weight at 10 mg/kg, ig administered QD for 30 days (reference value: 6.4+/-1.4 g/100 g); assay type: functional; conditions: route intragastric
Rattus norvegicus [12] = experiment: Antiobese activity in high fat diet-fed Sprague-Dawley rat assessed as plasma total cholesterol level at 10 mg/kg, ig administered QD for 30 days (reference value: 1.86+/-0.31 mmol/L); assay type: functional; conditions: route intragastric
Rattus norvegicus [13] = experiment: Antiobese activity in high fat diet-fed Sprague-Dawley rat assessed as plasma triglyceride level at 10 mg/kg, ig administered QD for 30 days (reference value: 1.25+/-0.23 mmol/L); assay type: functional; conditions: route intragastric
Mus musculus [14] = experiment: Hypolipidemic activity in high fat diet-fed C57BL/6 mouse assessed as decrease in plasma total cholesterol level at 200 mg/kg, ig administered QD for 4 weeks; assay type: functional, organism-based; set-up: dose 200 mg/kg
Mus musculus [15] = experiment: Hypolipidemic activity in high fat diet-fed C57BL/6 mouse assessed as decrease in plasma triglyceride level at 200 mg/kg, ig administered QD for 4 weeks; assay type: functional, organism-based; set-up: dose 200 mg/kg
Mus musculus [16] = experiment: Hypolipidemic activity in high fat diet-fed C57BL/6 mouse assessed as increase in plasma HDL level at 200 mg/kg, ig administered QD for 4 weeks; assay type: functional, organism-based; set-up: dose 200 mg/kg
Mus musculus [17] = experiment: Hypolipidemic activity in high fat diet-fed C57BL/6 mouse assessed as decrease in plasma LDL level at 200 mg/kg, ig administered QD for 4 weeks; assay type: functional, organism-based; set-up: dose 200 mg/kg
3T3-L1 [18] = experiment: Antiproliferative activity against mouse 3T3L1 cells after 48 hrs by MTT assay; assay type: functional, cell-based
Mus musculus [19] = experiment: Hypolipidemic activity in high fat diet-fed C57BL/6 mouse assessed as decrease in plasma total cholesterol level at 50 mg/kg, ig administered QD for 4 weeks; assay type: functional, organism-based; set-up: dose 50 mg/kg
Mus musculus [20] = experiment: Reduction in plasma insulin level in high fat diet-fed C57BL/6 mouse at 50 mg/kg, ig administered QD for 4 weeks; assay type: functional, organism-based; set-up: dose 50 mg/kg
Mus musculus [21] = experiment: Hypolipidemic activity in high fat diet-fed C57BL/6 mouse assessed as decrease in plasma triglyceride level at 50 mg/kg, ig administered QD for 4 weeks; assay type: functional, organism-based; set-up: dose 50 mg/kg
3T3-L1 [22] = experiment: Inhibition of mouse 3T3L1 cells differentiation assessed as morphological changes after 48 hrs by oil-red-O staining; assay type: functional, cell-based
[23] = Acute toxicity in ig dosed KM mouse by Bliss method; assay type: organism-based; conditions: in vivo, po
Mus musculus [24] = experiment: Hypolipidemic activity in high fat diet-fed C57BL/6 mouse assessed as decrease in plasma LDL level at 50 mg/kg, ig administered QD for 4 weeks; assay type: functional, organism-based; set-up: dose 50 mg/kg
Mus musculus [25] = experiment: Hypolipidemic activity in high fat diet-fed C57BL/6 mouse assessed as increase in plasma HDL level at 50 mg/kg, ig administered QD for 4 weeks; assay type: functional, organism-based; set-up: dose 50 mg/kg

Structure (SMILES)	Activity (Rattus norvegicus [1])	Activity (Rattus norvegicus [2])	Activity (Rattus norvegicus [3])	Activity (Rattus norvegicus [4])	Activity (Rattus norvegicus [5])	Activity (3T3-L1 [6])	inhibition (3T3-L1 [7])	Activity (3T3-L1 [8])	other results
CCCCCCCC/C=C\CCCCCCCC(=O)Oc1ccc(-c2coc3cc(OC)ccc3c2=O)cc1	1.65 mmol/L	328 g	5.6 g/100 g body weight	1.01 mmol/L	696.3 µmol/L	–	–	–	–
CCCCCCCCCCCCCCCC(=O)Oc1ccc2c(=O)c(-c3ccc(OC)cc3)coc2c1	–	–	–	–	–	Active	Active	inactive	–
COc1ccc(-c2coc3cc(O)ccc3c2=O)cc1	–	–	–	–	–	–	–	Active	–
CCc1ccc(CCOc2ccc(CC3SC(=O)NC3=O)cc2)nc1 (stereo unspecified)	–	–	–	–	–	–	–	Active	–
CC(C)CC(N(C)C)C1(c2ccc(Cl)cc2)CCC1 (stereo unspecified) [SIBUTRAMINE]	–	–	–	–	–	–	–	–	Activity (Rattus norvegicus [9]): 609.6 µmol/L; Activity (Rattus norvegicus [10]): 301 g; Activity (Rattus norvegicus [11]): 4.3 g; Activity (Rattus norvegicus [12]): 1.32 mmol/L; Activity (Rattus norvegicus [13]): 0.97 mmol/L
O=C(O[C@H]1[C@H](OC(=O)c2cccnc2)[C@@H](OC(=O)c2cccnc2)[C@H](OC(=O)c2cccnc2)[C@@H](OC(=O)c2cccnc2)[C@H]1OC(=O)c1cccnc1)c1cccnc1	–	–	–	–	–	–	–	–	Activity (Mus musculus [14]): Active; Activity (Mus musculus [15]): Active; Activity (Mus musculus [16]): Active; Activity (Mus musculus [17]): Active
CCCCCCCC/C=C\CCCCCCCC(=O)Oc1ccc2c(=O)c(-c3ccc(OC)cc3)coc2c1 [OLEOYL FORMONONETIN]	1.31 mmol/L	309 g	5 g/100 g body weight	0.91 mmol/L	606.7 µmol/L	Active	Active	Active	Activity (3T3-L1 [18]): Active; Activity (Mus musculus [19]): Active; Activity (Mus musculus [20]): Active; Activity (Mus musculus [21]): Active; inhibition (3T3-L1 [22]): Active; LD50 [23]: 2160 mg/kg; Activity (Mus musculus [24]): Active; Activity (Mus musculus [25]): Active
CCCCCCCCCCCCCCCCCC(=O)Oc1ccc(-c2coc3cc(OC)ccc3c2=O)cc1	1.71 mmol/L	352 g	6 g/100 g body weight	1.35 mmol/L	738.1 µmol/L	–	–	–	–
CCCCC/C=C\C/C=C\CCCCCCCC(=O)Oc1ccc2c(=O)c(-c3ccc(OC)cc3)coc2c1	1.28 mmol/L	307 g	4.3 g/100 g body weight	0.99 mmol/L	603.8 µmol/L	Active	Active	Active	–
CCCCCCCCCCCCCCCCCC(=O)Oc1ccc2c(=O)c(-c3ccc(OC)cc3)coc2c1	1.57 mmol/L	320 g	5.4 g/100 g body weight	1.19 mmol/L	730.2 µmol/L	Active	Active	inactive	–
CCCCC/C=C\C/C=C\CCCCCCCC(=O)Oc1ccc(-c2coc3cc(OC)ccc3c2=O)cc1	1.67 mmol/L	318 g	5.1 g/100 g body weight	1.03 mmol/L	658.8 µmol/L	–	–	–	–
